From PMC8497620, “Structure and inhibition of Cryptococcus neoformans sterylglucosidase to develop antifungal agents” (Nature Communications, 2021)
“And” between values parts separate entries of the source, which are not always exact repeats. Equal values may be shown once. Read-outs that look alike come from different tables or passages of the source.

What was measured:
[1] = target: T1, Cerezyme (Homo sapiens, UniProt P04062, R534H); assay: Cerezyme activity on mammalian C18-glucosylceramide in presence of hits (LC-MS); assay type: biochemical; conditions: for C18-ceramide: hits at 100 µM, 10 µg Cerezyme, 10 µg mammalian C18-glucosylceramide, pH 5.5, 37°C, 3 hours; for inhibition of human Cerezyme: physiological mammalian glucosylceramide substrate, 100 µM compound
T1 construct: purchased Genzyme Corporation, Cambridge, MA, USA
T1 sequence (P04062 40-536 R534H): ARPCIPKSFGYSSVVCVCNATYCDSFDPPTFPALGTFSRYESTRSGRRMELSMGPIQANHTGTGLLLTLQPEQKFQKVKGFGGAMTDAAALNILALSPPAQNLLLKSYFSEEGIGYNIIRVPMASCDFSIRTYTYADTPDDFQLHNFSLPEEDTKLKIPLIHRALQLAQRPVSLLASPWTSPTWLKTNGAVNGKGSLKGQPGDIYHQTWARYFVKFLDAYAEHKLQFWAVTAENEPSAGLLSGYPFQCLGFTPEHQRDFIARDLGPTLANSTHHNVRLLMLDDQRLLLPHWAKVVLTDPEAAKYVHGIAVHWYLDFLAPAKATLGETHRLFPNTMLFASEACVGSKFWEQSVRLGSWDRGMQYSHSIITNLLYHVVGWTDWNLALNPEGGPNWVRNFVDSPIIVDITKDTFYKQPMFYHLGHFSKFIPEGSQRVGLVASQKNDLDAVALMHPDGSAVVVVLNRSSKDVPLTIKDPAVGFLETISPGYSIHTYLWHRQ
Experimental: Supplementary figure 8. Cerezyme is not inhibited by its 1, 9 and 15. 10 µg of Cerezyme was added to 10 µg of mammalian C18-glucosylceramide in the presence of 100 µM of compound hits. The reactions were performed in 50 mM sodium acetate buffer pH5.5 and incubated at 37°C for 3 hours. The amount of C18-ceramide formed was quantified by LC-MS. There was no significant difference between the control (no drug) and samples with 100 µM of hits 1, 9 and 15 (p>0.05). Statistical analysis by one-way ANOVA, Dunnett's Multiple Comparison Test. Data represent the mean +/- SD of n=3 independent experiments.

[2] = target: C. neoformans Sgl1 (Cryptococcus neoformans var. grubii, UniProt J9W473); assay: Sgl1 inhibition with res-glp substrate (HTS, single-compound dose-response); assay type: biochemical; conditions: for inhibition at 0.125 µM: read-out: % Sgl1 Inhibition, 0.125 µM compound; for inhibition at 0.125 µM / inhibition at 0.5 µM / inhibition at 1 µM / inhibition at 2 µM / inhibition at 4 µM / inhibition at 8 µM / inhibition at […] / % Sgl1 Inhibition: substrate resorufin 3β-D-glucopyranoside (100 µM); for inhibition at 0.5 µM: read-out: % Sgl1 Inhibition, 0.5 µM compound; for inhibition at 1 µM: read-out: % Sgl1 Inhibition, 1 µM compound; for inhibition at 2 µM: read-out: % Sgl1 Inhibition, 2 µM compound; for inhibition at 4 µM: read-out: % Sgl1 Inhibition, 4 µM compound; for inhibition at 8 µM: read-out: % Sgl1 Inhibition, 8 µM compound; for inhibition at […]: read-out: % Sgl1 Inhibition, […] compound; for IC50: res-glp as substrate (100 µM), primary screen, read-out: IC50 against Sgl1
Chain of C. neoformans Sgl1 (J9W473 entry or part of it): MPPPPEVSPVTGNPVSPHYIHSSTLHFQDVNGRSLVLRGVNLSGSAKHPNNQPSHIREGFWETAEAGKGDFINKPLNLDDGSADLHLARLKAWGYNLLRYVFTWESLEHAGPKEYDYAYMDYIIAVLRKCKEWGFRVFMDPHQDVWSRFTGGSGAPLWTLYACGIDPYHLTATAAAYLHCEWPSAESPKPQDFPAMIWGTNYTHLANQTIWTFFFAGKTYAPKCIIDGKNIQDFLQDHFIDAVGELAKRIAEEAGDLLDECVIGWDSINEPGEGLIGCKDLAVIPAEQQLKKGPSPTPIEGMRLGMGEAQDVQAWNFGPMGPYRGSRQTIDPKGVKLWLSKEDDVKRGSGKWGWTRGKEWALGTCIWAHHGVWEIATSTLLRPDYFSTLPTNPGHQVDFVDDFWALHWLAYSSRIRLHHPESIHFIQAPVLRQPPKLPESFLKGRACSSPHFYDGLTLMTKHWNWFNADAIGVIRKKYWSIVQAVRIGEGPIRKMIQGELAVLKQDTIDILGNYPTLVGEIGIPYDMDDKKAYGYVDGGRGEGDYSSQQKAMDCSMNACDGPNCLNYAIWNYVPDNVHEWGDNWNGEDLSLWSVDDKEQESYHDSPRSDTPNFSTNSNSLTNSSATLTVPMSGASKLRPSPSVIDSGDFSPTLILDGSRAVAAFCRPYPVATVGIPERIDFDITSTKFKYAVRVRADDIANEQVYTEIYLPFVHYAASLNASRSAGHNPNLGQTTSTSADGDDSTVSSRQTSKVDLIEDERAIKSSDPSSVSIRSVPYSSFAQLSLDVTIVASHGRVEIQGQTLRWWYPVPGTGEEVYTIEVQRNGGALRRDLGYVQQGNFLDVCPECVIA

[3] = test system: C. neoformans H99; assay type: in vivo, Cryptococcus neoformans; conditions: Hit 1 intranasally, fluconazole intraperitoneally; for brain dissemination / CFU recovered from the brain: 14 days; for Lung (CFU/mL): 10 mg/kg/day
Experimental: (§1) For animal studies, 4-week-old CBA/J (Envigo) female mice were used. Mouse experiments were performed in full compliance with a protocol approved by Stony Brook University (IACUC number 341588) and in compliance with the United States Animal Welfare Act (Public Law 98–198). The experiments were carried out in facilities accredited by the Association for Assessment and Accreditation of Laboratory Animal Care. Mice were divided into sets of 12 mice for each treatment or control group (4 animals per cage) kept in an animal room (temperature, 22–24 °C; relative humidity, 35–45%) with artificial 12–12 h dark/light cycle. For the experiment with intraperitoneal (i.p.) treatment, mice were infected intranasally with 10 µL of a suspension containing 1 × 10^6 C. neoformans H99 cells and subsequently treated through i.p. injection with 10 mg/kg/day of hit 1 in a final volume of 100 µL of vehicle containing 10% PEG 200 in PBS. The untreated animals received 100 µL of vehicle. For the experiment with intranasal (i.n.) treatment, mice were infected with 1 × 10^5 C. neoformans H99 cells and received i.n. treatment with hit 1 in a final volume of 10 µL. Another group received treatment with 10 mg/kg/day of fluconazole i.p. and a third group received the combined treatment of hit1 by i.n. and fluconazole by i.p. Animals receiving only vehicle i.n. were used as a control group. In both experiments, three mice of each group were euthanized at day 3, 6, 9, and 14 post infection for CFU recovery from lungs and CFU recovery from brain on day 14.

[4] = test system: C. neoformans H99; assay: Mouse model of cryptococcosis, intraperitoneal treatment (CBA/J mice); assay type: in vivo, Cryptococcus neoformans; conditions: 10 mg/kg/day intraperitoneally; for CFU recovered from the brain: 14 days after infection; for lung CFU compared to vehicle-treated mice: days 3, 6, 9, 14; for Lung (CFU/mL): 10 mg/kg/day
Experimental: as §1

[5] = day 14 post infection, 10 mg/kg/day each

COc1cccc(-c2ncc(CN3CCC(O)(CO)CC3)s2)c1 [Hit 1]
C18-ceramide [1]: 871.82 pmol/mL and 1017.11 pmol/mL and 1021.42 pmol/mL | inhibition of human Cerezyme [1]: not inhibited | inhibition at 0.125 µM [2]: 0% | inhibition at 0.5 µM [2]: 14% | inhibition at 1 µM [2]: 45.8% | inhibition at 2 µM [2]: 56.1% | inhibition at 4 µM [2]: 74% | inhibition at 8 µM [2]: 90.2% | inhibition at […] [2]: 0% | IC50 [2]: ~1000 nM and 1000 nM | brain dissemination / CFU recovered from the brain [3]: no CFU recovered from the brain | brain dissemination / CFU recovered from the brain ([3]; listed as hit 1): no brain dissemination of yeast cells | Lung (CFU/mL) ([3]; day 9 post infection, 10 mg/kg/day each): 950000 CFU/mL and 1400000 CFU/mL and 780000 CFU/mL | Brain (CFU/mL) [3, 5]: 0 CFU/mL | Lung (CFU/mL) [3, 5]: 3880000 CFU/mL and 3700000 CFU/mL and 3100000 CFU/mL | CFU recovered from the brain [4]: no CFU were recovered from the brain | CFU recovered from the brain ([4]; listed as hit 1): No yeast cells were recovered from the brain | lung CFU compared to vehicle-treated mice [4]: did not reduce lung colony-forming units | lung CFU compared to vehicle-treated mice ([4]; listed as hit 1): no significant difference among untreated and treated mice | Lung (CFU/mL) ([4]; day 3 post infection): 1200000 CFU/mL and 1520000 CFU/mL and 1480000 CFU/mL | Lung (CFU/mL) ([4]; day 9 post infection): 25000000 CFU/mL and 14200000 CFU/mL and 19700000 CFU/mL | Brain (CFU/mL) ([4]; day 14 post infection): 0 CFU/mL | Lung (CFU/mL) ([4]; day 14 post infection): 28600000 CFU/mL and 29600000 CFU/mL and 22000000 CFU/mL

CN1C[C@@H](NC(=O)Cc2ccc3c(c2)NC(=O)CO3)C[C@@H]1CO [Hit 9]
C18-ceramide [1]: 1045.62 pmol/mL and 1138.29 pmol/mL and 953.48 pmol/mL | inhibition of human Cerezyme [1]: not inhibited | % Sgl1 Inhibition ([2]; 0.125 µM compound): 56.0175% and 54.9266% and 54.4568% | % Sgl1 Inhibition ([2]; 0.5 µM compound): 83.3956% and 82.99% and 82.7099% | % Sgl1 Inhibition ([2]; 1 µM compound): 91.001% and 90.7947% and 90.4821% | % Sgl1 Inhibition ([2]; 2 µM compound): 95.2753% and 95.0933% and 95.0009% | % Sgl1 Inhibition ([2]; 4 µM compound): 97.4258% and 97.3045% and 97.2378% | % Sgl1 Inhibition ([2]; 8 µM compound): 98.6119% and 98.5721% and 98.4808% | inhibition at 0.125 µM [2]: 57.2% | inhibition at 0.5 µM [2]: 84% | inhibition at 1 µM [2]: 91.3% | inhibition at 2 µM [2]: 95.5% | inhibition at 4 µM [2]: 97.5% | inhibition at 8 µM [2]: 98.6% | inhibition at […] [2]: 73.1% | IC50 [2]: ~1000 nM

CC(C)c1nc(N[C@@H]2C[C@@H](CO)N(C)C2)c2cnn(C)c2n1 [Hit 15]
C18-ceramide [1]: 1251.6 pmol/mL and 855.67 pmol/mL and 1299.99 pmol/mL | inhibition of human Cerezyme [1]: not inhibited | % Sgl1 Inhibition ([2]; 0.125 µM compound): 9.082% and 9.377% and 8.377% | % Sgl1 Inhibition ([2]; 0.5 µM compound): 26.2814% and 26.2434% and 24.9511% | % Sgl1 Inhibition ([2]; 1 µM compound): 39.5402% and 38.9055% and 37.6785% | % Sgl1 Inhibition ([2]; 2 µM compound): 58.3844% and 57.9199% and 56.5095% | % Sgl1 Inhibition ([2]; 4 µM compound): 75.564% and 74.8313% and 74.139% | % Sgl1 Inhibition ([2]; 8 µM compound): 85.0771% and 84.7714% and 84.105% | inhibition at 0.125 µM [2]: 10.2% | inhibition at 0.5 µM [2]: 27.9% | inhibition at 1 µM [2]: 40.8% | inhibition at 2 µM [2]: 59.6% | inhibition at 4 µM [2]: 76.4% | inhibition at 8 µM [2]: 85.5% | inhibition at […] [2]: 14.9% | IC50 [2]: ~1000 nM and 1000 nM
